Results as given in patent US20160022636A1, “PHYSIOLOGICAL LIGANDS FOR GPR139” (JANSSEN PHARMACEUTICA NV, priority 2013, published 2016).
Values joined by “and” are separate entries in the source; they are usually repeats but may differ in a detail not shown here. Equal entries are not always repeated. Where two headings read alike, the source gives them in different places.

How the values were obtained:
[1] = target: T1, GPR139 (Homo sapiens, UniProt Q6DWJ6); assay: calcium mobilization assay (FLIPR), GPR139 transiently expressed in HEK293 cells; type: cell-based; design: expressed in transfected cells; host or cells: HEK293
T1 sequence (Q6DWJ6 1-353): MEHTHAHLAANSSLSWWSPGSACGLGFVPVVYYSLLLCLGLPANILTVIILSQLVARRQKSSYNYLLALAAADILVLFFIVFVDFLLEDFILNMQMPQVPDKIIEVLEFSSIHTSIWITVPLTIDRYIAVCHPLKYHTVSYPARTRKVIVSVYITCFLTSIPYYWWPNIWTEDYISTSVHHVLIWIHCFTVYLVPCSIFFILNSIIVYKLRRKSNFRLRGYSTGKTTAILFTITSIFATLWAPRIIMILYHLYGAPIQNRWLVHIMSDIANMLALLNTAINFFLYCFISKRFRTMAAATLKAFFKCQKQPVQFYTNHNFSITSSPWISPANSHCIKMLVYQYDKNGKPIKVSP
Text: For these experiments human GPR139 was transiently expressed in HEK293 cells and calcium mobilization was stimulated using L-Trp, L-Phe or their derivatives.

[2] = tested on: GO2Q alone; assay: GTPγS binding assay, control membranes from COS7 cells expressing GO2Q alone (Ct-GO2Q); type: biochemical
Text: Human (A and B) or mouse (C and D) GPR139 were co-transfected with chimeric G-protein GO2Q into COS7 cells. Cell membranes from transfected cells were used in GTPγS binding studies using various ligands at different concentrations to stimulate GPR139. Membranes from COS7 cells transfected by GO2Q were used as the controls (E and F).
(§1) In order identify the ligands for GPR139 two improvements in the detection assay were made to allow for the ligands to be detected. First, we chose to use a GTPγS binding assay instead of using live cultured cells. The GTPγS binding assay is a cell free system that uses the cell membrane of the cell(s) of interest rather than the live cell(s). One advantage of this assay is that potential ligands present in the cell culture media are washed away when the cell membrane is prepared. This reduces the basal level of signal and increase the chance of detecting receptor ligands when assessing compounds that activate the receptor. Second, a GO2Q chimeric G-protein was created to be co-expressed with GPR139 in order to increase the signal-to-noise ratio in the GTPγS binding assay. Historically, the Gi, Go coupled GPCRs offer much greater signal-to-noise ratio in GTPγS binding studies. For Gs and Gq coupled GPCRs, although ligand-stimulated specific signals can be detected in a GTPγS binding assay, the signal-to-noise ratios are often very small. To address this a chimeric GO2-Gq chimeric G-protein, GO2Q, with the N-terminus from Go2 protein and the C-terminus from Gq protein.
(§2) To test for compounds that activate GPR139, different amino acids and their derivatives (Table 2) were tested as ligands in the GTPγS binding assay using cell membranes from COS7 cells co-expressing GPR139 and GO2Q. Cell membrane from COS7 cells expressing GO2Q alone or co-expressing other GPCRs were also tested in GTPγS binding assay in parallel as controls. Each compound was tested in triplicate.

[3] = target: T1, GPR139; assay: GTPγS binding assay, membranes from COS7 cells co-expressing GPR139 and GO2Q, single concentration screen; type: biochemical; design: expressed in transfected cells; host or cells: COS7; conditions: 1 mM final concentration; single wells of triplicate; COS7 membranes co-expressing GPR139 and GO2Q
Experimental: as §1, §2

[4] = HEK293, calcium mobilization at 300 μM as percentage of that observed for L-phenylalanine, read-out: % L-phenylalanine at 300 μM (average)
[5] = HEK293, read-out: % L-phenylalanine at 300 μM (average)
[6] = 1 mM final concentration, single wells of triplicate, COS7 membranes with GO2Q alone (control panel)
[7] = calcium mobilization at 300 μM as percentage of that observed for L-phenylalanine

Row | Compound | activation at 300 µM [1, 4] [%] | Activation levels (GTPγS binding signal), Ct-GO2Q [2, 6] | Activation levels of GPR139 (GTPγS binding signal), GPR139-GO2Q [3] | also measured
1 | N[C@@H](Cc1cccc([N+](=O)[O-])c1)C(=O)O [3-Nitro-L-phenylalanine] | 131 | – | – | –
2 | N[C@@H](Cc1cccc(C(F)(F)F)c1)C(=O)O [3-Trifluoromethyl-L-phenylalanine] | 133 | – | – | –
3 | N[C@H](Cc1ccc(Br)cc1)C(=O)O [4-Bromo-D-phenylalanine] | – | – | – | activation at 300 µM [1, 5]: 139%
4 | N[C@@H](Cc1ccc(Br)cc1)C(=O)O [4-Bromo-L-phenylalanine] | – | – | – | activation at 300 µM [1, 5]: 153%
5 | N[C@H](Cc1ccc(Cl)cc1)C(=O)O [4-Chloro-D-phenylalanine] | 110 | – | – | –
6 | N[C@@H](Cc1ccc(Cl)cc1)C(=O)O [4-Chloro-L-phenylalanine] | 146 | – | – | –
7 | N[C@H](Cc1ccc(F)cc1)C(=O)O [4-Fluoro-D-phenylalanine] | 91 | – | – | –
8 | N[C@@H](Cc1ccc(F)cc1)C(=O)O [4-Fluoro-L-phenylalanine] | 132 | – | – | –
9 | N[C@H](Cc1ccc(I)cc1)C(=O)O [4-Iodo-D-phenylalanine] | 125 | – | – | –
10 | N[C@@H](Cc1ccc(I)cc1)C(=O)O [4-Iodo-L-phenylalanine] | 116 | – | – | –
11 | COc1ccc(C[C@H](N)C(=O)O)cc1 [4-Methoxy-L-phenylalanine] | 128 | – | – | –
12 | Cc1ccc(C[C@@H](N)C(=O)O)cc1 [4-Methyl-D-phenylalanine] | 102 | – | – | –
13 | Cc1ccc(C[C@H](N)C(=O)O)cc1 [4-Methyl-L-phenylalanine] | 149 | – | – | –
14 | N[C@H](Cc1ccc([N+](=O)[O-])cc1)C(=O)O [4-Nitro-D-phenylalanine] | 111 | – | – | –
15 | N[C@@H](Cc1ccc(C(F)(F)F)cc1)C(=O)O [4-Trifluoromethyl-L-phenylalanine] | 150 | – | – | –
16 | CC(C)(C)c1ccc(C[C@H](N)C(=O)O)cc1 [4-tert-Butyl-L-phenylalanine] | 115 | – | – | –
17 | CC(C)(C)OC(=O)N1Cc2ccccc2C[C@@H]1C(=O)O [(3R)-2-tert-butoxycarbonyl-3,4-dihydro-1H-isoquinoline-3-carboxylic acid] | 155 | – | – | –
18 | CNCC(O)c1ccc(O)c(O)c1 (centres unmarked) [Adrenaline] | – | 2240 and 2117 and 2045 | 2721 and 2624 and 2670 | –
19 | C[C@H](N)C(=O)O [Ala] | – | 1903 and 2049 and 2139 | 2363 and 2348 and 2439 | –
20 | N=C(N)NCCC[C@H](N)C(=O)O [Arg] | – | – | 2806 and 2783 and 2528 | Activation levels (GTPγS binding signal), Ct-GO2Q [2]: 2171 and 2131 and 2255
21 | NC(=O)C[C@H](N)C(=O)O [Asn] | – | 2195 and 2142 and 2133 | 2806 and 2483 and 2547 | –
22 | N[C@@H](CC(=O)O)C(=O)O [Asp] | – | 2177 and 2137 and 2132 | 2758 and 2922 and 2925 | –
23 | N[C@@H](CS)C(=O)O [Cys] | – | 1928 and 2132 and 2114 | 2168 and 2458 and 2336 | –

Row | Compound | activation at 300 µM [1, 4] [%] | Activation levels (GTPγS binding signal), Ct-GO2Q [2, 6] | Activation levels of GPR139 (GTPγS binding signal), GPR139-GO2Q [3] | also measured
24 | N[C@@H](CSSC[C@H](N)C(=O)O)C(=O)O [Cystine] | – | 2242 and 2149 and 2229 | 2501 and 2652 and 2258 | –
25 | N[C@H](CCCc1ccccc1)C(=O)O [D-2-Amino-5-phenyl-pentanoic acid] | 129 | – | – | –
26 | NCCc1ccc(O)c(O)c1 [DA] | – | 2250 and 2213 and 2319 | 2688 and 2825 and 2708 | –
27 | NC(=O)CC[C@H](N)C(=O)O [Gln] | – | 2181 and 2327 and 2336 | 2583 and 2525 and 2766 | –
28 | N[C@@H](CCC(=O)O)C(=O)O [Glu] | – | 2242 and 2310 and 2311 | 2847 and 2837 and 2841 | –
29 | NCC(=O)O [Gly] | – | 1936 and 2133 and 2289 | 2560 and 2505 and 2414 | –
30 | NCCc1c[nH]cn1 [HA, histamine] | – | 2186 and 2204 and 2199 | 2737 and 2863 and 2899 | –
31 | O=C(O)[C@@H]1C[C@@H](O)CN1 [HO-Pro] | – | 2166 and 2152 and 2189 | 2825 and 2797 and 3109 | –
32 | N[C@@H](Cc1c[nH]cn1)C(=O)O [His] | – | 2308 and 2259 and 2197 | 2640 and 2499 | –
33 | CC[C@H](C)[C@H](N)C(=O)O [Ile] | – | 2266 and 2222 and 2253 | 2760 and 2542 and 2903 | –
34 | O=C(O)[C@@H]1Cc2c([nH]c3ccccc23)CN1 [L-1,2,3,4-tetrahydronorharman-3-carboxylic acid] | – | – | – | % L-phenylalanine at 300 μM (average) [1, 7]: 151%
35 | CC(C)C[C@H](N)C(=O)O [Leu] | – | 2194 and 2213 and 2167 | 2621 and 2544 and 2437 | –
36 | NCCCC[C@H](N)C(=O)O [Lys] | – | 2400 and 2138 and 2041 | 2433 and 2617 and 2589 | –
37 | CSCC[C@H](N)C(=O)O [Met] | – | 2173 and 2307 and 2276 | 2657 and 2829 and 2802 | –
38 | NCC(O)c1ccc(O)cc1 (centres unmarked) [Octopamine] | – | 2087 and 2140 and 2142 | 2554 and 2675 and 2831 | –
39 | O=C(O)[C@@H]1CCCN1 [Pro] | – | 2256 and 2235 and 2329 | 2719 and 2657 and 2786 | –
40 | N[C@@H](CO)C(=O)O [Ser] | – | 1975 and 2036 and 2164 | 2605 and 2458 and 2545 | –
41 | NCCc1c[nH]c2ccc(O)cc12 [Seretonin] | – | 2356 and 2154 and 2332 | 2839 and 2852 and 2920 | –
42 | C[C@@H](O)[C@H](N)C(=O)O [Thr] | – | 2210 and 2213 and 2008 | 2547 and 2507 and 2558 | –
43 | N[C@@H](Cc1ccc(O)cc1)C(=O)O [Tyr] | – | 2192 and 2191 and 2186 | 2752 and 2715 and 2921 | –
44 | NCCc1ccc(O)cc1 [Tyramine] | – | 2132 and 2277 and 2369 | 2883 and 2932 and 2873 | –
45 | N[C@H](CCc1ccccc1)C(=O)O [d-Homo-phenylalanine] | – | – | – | % L-phenylalanine at 300 μM (average) [1, 7]: 105%
46 | C[C@](N)(Cc1ccc(F)cc1)C(=O)O [α-methyl-4-Fluoro-L-phenylalanine] | 125 | – | – | –
